Measurements from patent US8338334B2, “Synergistic herbicidal composition containing fluroxypyr and quinclorac” (Dow AgroSciences, LLC, priority 2010, dated 2012).
Values joined by “and” are separate entries in the source; they are usually repeats but may differ in a detail not shown here. Equal entries are not always repeated.

What was measured:
Test in all cases: Postemergence herbicidal activity in the greenhouse, visual weed control
Type in all cases: in vivo
Details in all cases: 21 DAA
[1] = test system: broadleaf signalgrass (Brachiaria platyphylla; BRAPP)
Protocol: (§1) Seeds of the desired test plant species were planted in 80% mineral soil/20% grit planting mixture, which typically has a pH of 7.2 and an organic matter content of about 2.9 percent, in plastic pots with a surface area of 128 square centimeters (cm^2). The growing medium was steam sterilized. The plants were grown for 7-19 days in a greenhouse with an approximate 14-hour (h) photoperiod which was maintained at about 29° C. during the day and 26° C. during the night. Nutrients and water were added on a regular basis and supplemental lighting was provided with overhead metal halide 1000-Watt lamps as necessary. The plants were treated with postemergence foliar applications when they reached the third to fourth true leaf stage. All treatments were applied using a randomized complete block trial design, with 4 replications per treatment.
(§2) Treatments consisted of the compounds as listed in Table 1 for each compound applied alone and in combination. Formulated amounts of quinclorac and fluroxypyr-meptyl ester were placed in 60 milliliter (mL) glass vials and dissolved in a volume of 60 mL of a water solution containing Agri-dex crop oil concentrate in a 1% volume per volume (v/v) ratio. Compound requirements are based upon a 12 mL application volume at a rate of 187 liters per hectare (L/ha). Spray solutions of the mixtures were prepared by adding the stock solutions to the appropriate amount of dilution solution to form 12 mL spray solution with active ingredients in single and two way combinations. Formulated compounds were applied to the plant material with an overhead Mandel track sprayer equipped with 8002E nozzles calibrated to deliver 187 L/ha at a spray height of 18 inches (43 centimeters (cm)) above average plant canopy.
(§3) The treated plants and control plants were placed in a greenhouse as described above and watered by sub-irrigation to prevent wash-off of the test compounds. Treatments were rated at 21 days after application (DAA) as compared to the untreated control plants. Visual weed control was scored on a scale of 0 to 100 percent where 0 corresponds to no injury and 100 corresponds to complete kill.
(§4) All treatment results, both for the single product and mixtures, are an average of 4 replicates evaluated at 21 days after application, and the tank mix interactions are significant at the […] level.
(§5) Colby's equation was used to determine the herbicidal effects expected from the mixtures (Colby, S. R. Calculation of the synergistic and antagonistic response of herbicide combinations. Weeds 1967, 15, 20-22.).
(§6) The following equation was used to calculate the expected activity of mixtures containing two active ingredients, A and B: Expected=A+B−(A×B/100)

[2] = test system: Chinese sprangletop (Leptochloa chinensis; LEFCH)
Protocol: as §1, §2, §3, §4, §5, §6

[3] = test system: barnyardgrass (Echinochloa crus-galli; ECHCG)
Protocol: as §1, §2, §3, §4, §5, §6

[4] = fluroxypyr-meptyl 50 g ae/ha alone
[5] = fluroxypyr-meptyl 100 g ae/ha alone
[6] = fluroxypyr-meptyl 200 g ae/ha alone

SMILES	% Control BRAPP Ob (observed value) [1, 4] [%]	% Control BRAPP Ob (observed value) [1, 5] [%]	% Control BRAPP Ob (observed value) [1, 6] [%]	% Control LEFCH Ob (observed value) [2, 5] [%]	% Control LEFCH Ob (observed value) [2, 6]	% Control ECHCG Ob (observed value) [3, 4] [%]	% Control ECHCG Ob (observed value) [3, 5] [%]	% Control ECHCG Ob (observed value) [3, 6] [%]	% Control BRAPP Ob (observed value) ([1]; quinclorac 26 g ai/ha alone) [%]	% Control BRAPP Ob (observed value) ([1]; quinclorac 53 g ai/ha alone) [%]	% Control BRAPP Ob (observed value) ([1]; quinclorac 110 g ai/ha alone) [%]	% Control BRAPP Ob (observed value) ([1]; quinclorac 220 g ai/ha alone) [%]	% Control LEFCH Ob (observed value) ([2]; quinclorac 26 g ai/ha alone) [%]	% Control LEFCH Ob (observed value) ([2]; quinclorac 53 g ai/ha alone) [%]	% Control LEFCH Ob (observed value) ([2]; quinclorac 110 g ai/ha alone) [%]	% Control LEFCH Ob (observed value) ([2]; quinclorac 220 g ai/ha alone) [%]	% Control ECHCG Ob (observed value) ([3]; quinclorac 26 g ai/ha alone) [%]	% Control ECHCG Ob (observed value) ([3]; quinclorac 53 g ai/ha alone) [%]	% Control ECHCG Ob (observed value) ([3]; quinclorac 110 g ai/ha alone) [%]	% Control ECHCG Ob (observed value) ([3]; quinclorac 220 g ai/ha alone) [%]
CCCCCCC(C)OC(=O)COc1nc(F)c(Cl)c(N)c1Cl (centres unmarked) [Fluroxypyr-meptyl]	5	1	5	50	41% and 42%	0	11	6												
O=C(O)c1c(Cl)ccc2cc(Cl)cnc12 [Quinclorac, 3,7-dichloro-8-quinolinecarboxylic acid]									5	6	5	26	5	10	15	11	5	6	31	65
